According to PubChem BioAssay (NCI):
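Briefly, cells in 96-well plates were exposed to five compound concentrations for 48 h, and endpoints were estimated by linear interpolation. GI50 = concentration required for 50% inhibition of growth. The concentration for full growth arrest is given as TGI.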

Key:
Experiment in all cases: inhibition of tumour cell growth, NCI panel, 48 h
A549 NSCLC = test system: A549 NSCLC
SNB-19 CNS = test system: SNB-19 CNS
CCRF-CEM leukemia = test system: CCRF-CEM leukemia
NCI-H23 lung = test system: NCI-H23 lung
MOLT-4 leukemia = test system: MOLT-4 leukemia
UACC-62 melanoma = test system: UACC-62 melanoma
HCT-116 colon = test system: HCT-116 colon
ACHN renal = test system: ACHN renal
UACC-257 melanoma = test system: UACC-257 melanoma
HT29 colon = test system: HT29 colon

SMILES | GI50 (A549 NSCLC) [µM] | TGI (A549 NSCLC) [µM] | GI50 (SNB-19 CNS) [µM] | TGI (SNB-19 CNS) [µM] | GI50 (CCRF-CEM leukemia) [µM] | TGI (CCRF-CEM leukemia) [µM] | GI50 (NCI-H23 lung) [µM] | TGI (NCI-H23 lung) [µM] | GI50 (MOLT-4 leukemia) [µM] | TGI (MOLT-4 leukemia) [µM] | GI50 (UACC-62 melanoma) [µM] | TGI (UACC-62 melanoma) [µM] | GI50 (HCT-116 colon) [µM] | TGI (HCT-116 colon) [µM] | GI50 (ACHN renal) [µM] | TGI (ACHN renal) [µM] | TGI (UACC-257 melanoma) [µM] | TGI (HT29 colon) [µM] | GI50 (UACC-257 melanoma) [µM] | GI50 (HT29 colon) [µM]
Cc1ccc(N2C(=O)C(Cl)=C(Nc3cccc(O)c3)C2=O)cc1Cl | 12.8 | 29.7 | 23.3 | 65.5 | 18.5 | 46.8 | 15.2 | 30.5 | 3.13 | 21.2 | 17 | 32.6 | 13.9 | 27.8 | 17.5 | 32.7 |  |  |  | 
CCCN(CCCCC(NC(C)=O)C(=O)NCc1ccccc1)C(=O)NC (centres undefined) |  | > 100 |  | > 100 |  | > 100 |  | > 100 |  | > 100 |  | > 100 |  | > 100 |  | > 100 | > 100 | > 100 |  | 
CCCCc1cc(O)ccc1O | 89.2 | > 100 | 78.5 | > 100 | 2.79 | 60.6 | 67.1 | > 100 | 5.07 | > 100 | 27.7 | > 100 | 15.5 | 28.9 | 15.6 | 28.9 | > 100 | > 100 | 78.2 | 43.1
CC/C=C\C[C@H](O)C/C=C1/C(=O)C=C[C@@H]1C/C=C\CCCC(N)=O | 2.49 | 6.01 | 7.43 | 21.6 | 1.38 | 8.07 | 2.13 | 5.27 |  |  | 1.36 | 3.36 | 1.02 | 2.47 | 1.64 | 3.35 | 5.3 | 3.7 | 1.97 | 1.89
C=C1C(=O)O[C@H]2[C@H]1CC/C(COC(=O)c1ccc(C(=O)O)s1)=C\CC[C@@]1(C)O[C@@H]21 | 5.35 | 18.4 | 3.17 | 11.6 | 1.63 | 8.66 | 3.34 | 11.8 | 2.38 | 7.2 | 1.65 | 3.23 | 0.715 | 2.03 | 1.63 | 3.02 | 5.47 | 3.5 | 2.18 | 1.56
Cn1nnnc1[N-]Cc1ccccc1.[Au+].c1ccc([PH+](c2ccccc2)c2ccccc2)cc1 | 21.2 | 71.3 | 3.61 | 13.1 | 0.752 | 3.95 | 3.35 | 10.4 | 1.67 | 4.75 | 1.72 | 7.12 | 3.88 | 13 | 4.29 | 10.6 | 7.78 | 13.3 | 2.01 | 5.02
Cc1ccc(-c2cc3nc(-c4ccccc4)nc(C(Cl)Cl)n3n2)cc1 | 0.927 | 2.63 | 0.759 | 1.73 | > 50 | > 50 | 1.95 | > 50 | > 50 | > 50 | 0.933 | 2.1 | 0.689 | 1.61 | 0.737 | 1.41 | 6.68 | 5.32 | 1.53 | 1.2
O=C1Cc2c(-c3ccccc3)cc(-c3cccc(Cl)c3)nc2-c2ccccc2N1 |  | 9.25 |  | 3.59 |  | 50.9 |  | 16.8 |  | > 90.4 |  | 12.2 |  | 4.13 | 1.15 | 5.63 | 24.1 | 5.17 |  | 
COC1C(=O)CCC2(CO2)C1(O)C1(C)OC1CCC(C)C (centres undefined) |  |  |  | > 100 |  | > 100 |  | > 100 |  | > 100 |  | > 100 |  | > 100 |  | > 100 | > 100 | > 100 |  | 
O=C1OCC2=Nc3cccc4cccc(c34)N12 |  | > 100 |  | > 100 |  | > 100 |  | > 100 |  | > 100 |  | > 100 |  | > 100 |  | > 100 | > 100 | > 100 |  | 
COC(=O)/C(=N/NC(C)(C)C)C(C(=O)C=C(C)C)C(=O)C(=O)Nc1ccc(Cl)cc1C (centres undefined) |  | > 100 |  | > 100 |  | > 100 |  | > 100 |  | > 100 |  | > 100 |  | > 100 |  | > 100 | > 100 | > 100 |  | 
OCC1OC(N2C=C(c3nc4ccccc4s3)C3C=CC=CC32)C(O)C1O (centres undefined) | 12.7 | 41.2 | 18.9 | > 50 |  |  | 8.89 | 28.7 | > 50 | > 50 | 8.92 | 19 | 5.21 | > 50 | 4.36 | 12.4 | 22.1 | 25.2 | 9.17 | 9.52
CCOC(=O)c1c2ccc(/C=C/C(=O)OC)ccc-2c(C(=O)OCC)c1N |  | > 100 |  | > 100 |  | > 100 |  | > 100 |  | > 100 |  | > 100 |  |  |  | > 100 | > 100 | > 100 |  | 
CN(C)CCNC(=O)c1cc([N+](=O)[O-])cc2ccc(-c3ccccc3)nc12 |  | 28 |  | 35.5 |  | 13.6 |  | 27.6 |  |  |  | 15.7 |  | 13.4 |  | 28.5 | 20.8 | 40 |  | 
NC(N)=N/N=C/c1c(-c2cc(Cl)sc2Cl)nc2n1CCS2 | 9.57 | 22 |  |  | 8.67 | 19.6 | 8.77 | 16.7 | 10.4 | 26.8 | 8.62 | 16 |  |  | 8.31 | 15.1 | 20.4 |  | 9 | 
